Measurements from ChEMBL document CHEMBL4145533, “6,7-Dimorpholinoalkoxy quinazoline derivatives as potent EGFR inhibitors with enhanced antiproliferative activities against tumor cells” (Eur J Med Chem, 2018).

Tests used:
[1] = tested on: A-431; assay: Antiproliferative activity against human A431 cells harboring wild type EGFR after 72 hrs by MTT assay; type: functional, cell-based; details: A-431, 72 h
[2] = tested on: A549; assay: Antiproliferative activity against human A549 cells harboring wild type EGFR/K-ras mutant after 72 hrs by MTT assay; type: functional, cell-based; details: A549, 72 h
[3] = tested on: HCC827; assay: Antiproliferative activity against human HCC827 cells harboring EGFR E746-A750 del mutant after 72 hrs by MTT assay; type: functional, cell-based; details: HCC827, 72 h
[4] = tested on: NCI-H1975; assay: Antiproliferative activity against human NCI-H1975 cells harboring EGFR L858R/T790M double mutant after 72 hrs by MTT assay; type: functional, cell-based; details: NCI-H1975, 72 h
[5] = tested on: SW480; assay: Antiproliferative activity against human SW480 cells harboring wild type EGFR after 72 hrs by MTT assay; type: functional, cell-based; details: SW480, 72 h
[6] = target: Epidermal growth factor receptor (Homo sapiens, UniProt P00533, L858R); assay: Inhibition of EGFR L858R mutant (unknown origin) using ULight-poly GT as substrate preincubated for 120 mins followed by substrate addition measured after 2 hrs by spectrophotometric method
[7] = target: Epidermal growth factor receptor (Homo sapiens, UniProt P00533, L858R/T790M); assay: Inhibition of EGFR L858R/T790M double mutant (unknown origin) using ULight-poly GT as substrate preincubated for 30 mins followed by substrate addition measured after 1 hr by spectrophotometric method
[8] = target: Epidermal growth factor receptor (Homo sapiens, UniProt P00533, T790M); assay: Inhibition of EGFR T790M mutant (unknown origin) preincubated for 10 mins followed by TK substrate-botion addition measured after 1 hr by spectrophotometric method
[9] = tested on: A549; assay: Induction of apoptosis in human A549 cells assessed as viable cells at 15 uM after 48 hrs by Annexin V-FITC/propidium iodide satining based FACS analysis (reference value: 95.87%); type: functional; details: A549, 48 h, read-out: Activity
[10] = tested on: A549; assay: Induction of apoptosis in human A549 cells assessed as early apoptotic cells at 15 uM after 48 hrs by Annexin V-FITC/propidium iodide satining based FACS analysis (reference value: 2.78%); type: functional
[11] = tested on: A549; assay: Induction of apoptosis in human A549 cells assessed as late apoptotic cells at 15 uM after 48 hrs by Annexin V-FITC/propidium iodide satining based FACS analysis (reference value: 1.21%); type: functional
[12] = tested on: A549; assay: Induction of apoptosis in human A549 cells assessed as necrotic cells at 15 uM after 48 hrs by Annexin V-FITC/propidium iodide satining based FACS analysis (reference value: 0.14%); type: functional
[13] = tested on: A549; assay: Cell cycle arrest in human A549 cells assessed as accumulation at G0/G1 phase at 15 uM after 48 hrs by propidium iodide satining based FACS analysis (reference value: 48.87%); type: functional
[14] = tested on: A549; assay: Cell cycle arrest in human A549 cells assessed as accumulation at S phase at 15 uM after 48 hrs by propidium iodide satining based FACS analysis (reference value: 34.45%); type: functional

Sequence of Epidermal growth factor receptor (Homo sapiens, UniProt P00533, L858R) (P00533 25-1210 L858R limits assumed): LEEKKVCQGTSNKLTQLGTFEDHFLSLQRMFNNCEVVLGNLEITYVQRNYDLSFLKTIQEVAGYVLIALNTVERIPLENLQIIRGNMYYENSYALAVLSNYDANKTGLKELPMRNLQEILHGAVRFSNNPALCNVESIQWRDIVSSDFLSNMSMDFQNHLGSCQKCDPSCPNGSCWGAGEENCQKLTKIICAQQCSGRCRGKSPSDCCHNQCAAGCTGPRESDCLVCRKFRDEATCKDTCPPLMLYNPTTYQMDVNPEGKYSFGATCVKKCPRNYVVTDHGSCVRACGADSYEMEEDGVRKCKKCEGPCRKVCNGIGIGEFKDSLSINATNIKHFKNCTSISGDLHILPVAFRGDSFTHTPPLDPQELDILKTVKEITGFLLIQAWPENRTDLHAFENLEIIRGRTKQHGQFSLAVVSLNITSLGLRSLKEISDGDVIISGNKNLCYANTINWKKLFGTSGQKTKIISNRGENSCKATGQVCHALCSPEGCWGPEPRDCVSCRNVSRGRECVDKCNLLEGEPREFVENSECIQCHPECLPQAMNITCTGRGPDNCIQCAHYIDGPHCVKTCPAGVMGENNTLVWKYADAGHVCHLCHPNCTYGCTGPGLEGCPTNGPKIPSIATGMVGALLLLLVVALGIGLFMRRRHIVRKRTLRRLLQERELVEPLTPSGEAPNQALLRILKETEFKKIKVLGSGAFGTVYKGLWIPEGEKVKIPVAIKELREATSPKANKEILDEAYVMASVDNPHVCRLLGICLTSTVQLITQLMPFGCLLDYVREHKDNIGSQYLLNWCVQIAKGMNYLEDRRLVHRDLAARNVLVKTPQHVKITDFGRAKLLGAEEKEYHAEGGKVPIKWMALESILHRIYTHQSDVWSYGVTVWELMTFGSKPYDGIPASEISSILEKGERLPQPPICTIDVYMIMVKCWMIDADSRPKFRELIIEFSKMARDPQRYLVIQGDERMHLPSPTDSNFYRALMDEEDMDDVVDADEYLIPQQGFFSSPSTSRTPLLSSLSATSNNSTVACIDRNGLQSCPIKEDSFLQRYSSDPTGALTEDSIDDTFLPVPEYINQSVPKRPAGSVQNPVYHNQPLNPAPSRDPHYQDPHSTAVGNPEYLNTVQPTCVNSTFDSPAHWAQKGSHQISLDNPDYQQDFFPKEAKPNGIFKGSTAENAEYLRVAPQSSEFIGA
Sequence of Epidermal growth factor receptor (Homo sapiens, UniProt P00533, L858R/T790M) (P00533 25-1210 T790M/L858R limits assumed): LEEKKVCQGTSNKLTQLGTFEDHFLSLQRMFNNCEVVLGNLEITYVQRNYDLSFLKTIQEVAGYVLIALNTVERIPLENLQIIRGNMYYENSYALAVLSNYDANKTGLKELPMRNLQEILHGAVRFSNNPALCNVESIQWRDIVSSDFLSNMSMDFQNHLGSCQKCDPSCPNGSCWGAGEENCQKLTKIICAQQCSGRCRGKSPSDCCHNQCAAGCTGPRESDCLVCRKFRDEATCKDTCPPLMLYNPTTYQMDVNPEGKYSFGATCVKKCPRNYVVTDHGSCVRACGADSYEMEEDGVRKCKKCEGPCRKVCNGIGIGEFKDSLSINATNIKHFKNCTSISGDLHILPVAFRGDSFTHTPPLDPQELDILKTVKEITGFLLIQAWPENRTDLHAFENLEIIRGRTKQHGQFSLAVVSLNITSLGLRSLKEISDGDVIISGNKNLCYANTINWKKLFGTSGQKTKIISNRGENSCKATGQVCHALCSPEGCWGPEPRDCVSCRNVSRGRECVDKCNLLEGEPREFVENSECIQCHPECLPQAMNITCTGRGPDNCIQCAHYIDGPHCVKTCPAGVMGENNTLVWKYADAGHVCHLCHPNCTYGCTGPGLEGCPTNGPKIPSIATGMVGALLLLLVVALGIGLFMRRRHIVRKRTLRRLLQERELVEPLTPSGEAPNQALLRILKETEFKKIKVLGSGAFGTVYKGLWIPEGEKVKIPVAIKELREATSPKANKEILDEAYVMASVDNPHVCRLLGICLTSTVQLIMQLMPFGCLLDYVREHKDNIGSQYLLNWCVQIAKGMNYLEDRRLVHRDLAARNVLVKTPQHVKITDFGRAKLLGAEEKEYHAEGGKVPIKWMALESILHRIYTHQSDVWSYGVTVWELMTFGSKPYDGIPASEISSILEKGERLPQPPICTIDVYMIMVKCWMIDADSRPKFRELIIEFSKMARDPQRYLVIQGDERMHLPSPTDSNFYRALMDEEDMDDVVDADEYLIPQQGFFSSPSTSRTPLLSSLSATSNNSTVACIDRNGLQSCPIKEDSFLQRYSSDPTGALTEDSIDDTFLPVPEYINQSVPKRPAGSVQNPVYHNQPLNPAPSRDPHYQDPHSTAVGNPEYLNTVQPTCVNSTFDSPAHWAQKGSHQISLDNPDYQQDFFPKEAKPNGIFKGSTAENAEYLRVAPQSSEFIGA
Sequence of Epidermal growth factor receptor (Homo sapiens, UniProt P00533, T790M) (P00533 25-1210 T790M limits assumed): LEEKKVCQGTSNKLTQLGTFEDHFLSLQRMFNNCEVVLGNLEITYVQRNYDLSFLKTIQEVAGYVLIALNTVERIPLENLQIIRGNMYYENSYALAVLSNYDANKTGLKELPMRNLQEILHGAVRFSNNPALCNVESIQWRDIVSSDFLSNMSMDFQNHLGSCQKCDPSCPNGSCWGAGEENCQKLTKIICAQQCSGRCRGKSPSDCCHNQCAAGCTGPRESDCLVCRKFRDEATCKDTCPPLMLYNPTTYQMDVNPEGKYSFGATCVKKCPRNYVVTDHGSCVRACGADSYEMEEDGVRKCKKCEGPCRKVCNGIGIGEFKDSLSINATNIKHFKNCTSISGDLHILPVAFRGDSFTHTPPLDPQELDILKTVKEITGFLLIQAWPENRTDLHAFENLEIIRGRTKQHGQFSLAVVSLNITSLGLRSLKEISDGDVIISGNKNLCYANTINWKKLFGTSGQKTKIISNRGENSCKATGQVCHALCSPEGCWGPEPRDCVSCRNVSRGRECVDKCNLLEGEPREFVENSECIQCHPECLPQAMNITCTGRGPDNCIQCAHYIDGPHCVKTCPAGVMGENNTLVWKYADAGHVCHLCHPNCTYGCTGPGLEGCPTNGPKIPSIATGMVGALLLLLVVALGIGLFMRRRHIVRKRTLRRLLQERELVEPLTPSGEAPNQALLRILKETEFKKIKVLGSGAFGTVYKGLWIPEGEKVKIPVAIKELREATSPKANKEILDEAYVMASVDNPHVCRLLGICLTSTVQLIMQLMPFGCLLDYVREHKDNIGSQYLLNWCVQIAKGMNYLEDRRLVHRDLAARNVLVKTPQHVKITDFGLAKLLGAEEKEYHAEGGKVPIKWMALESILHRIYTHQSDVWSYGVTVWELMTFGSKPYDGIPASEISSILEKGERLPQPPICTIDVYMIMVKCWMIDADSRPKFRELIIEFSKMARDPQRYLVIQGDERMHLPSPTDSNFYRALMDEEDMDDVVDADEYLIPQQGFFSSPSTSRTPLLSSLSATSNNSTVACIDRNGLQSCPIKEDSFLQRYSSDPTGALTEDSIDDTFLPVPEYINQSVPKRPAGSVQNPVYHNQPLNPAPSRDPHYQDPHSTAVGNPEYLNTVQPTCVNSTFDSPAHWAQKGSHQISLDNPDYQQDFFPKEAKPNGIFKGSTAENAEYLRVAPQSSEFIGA

Structure (SMILES) | IC50 [1] | IC50 [2] | IC50 [3] | IC50 [4] | IC50 [5] | IC50 [6] | IC50 [7] | IC50 [8] | viability at 15 µM [9] | Activity [10] | Activity [11] | Activity [12] | Activity [13] | Activity [14]
C/C=C/c1ccc(Nc2ncnc3cc(OCCN4CCOCC4)c(OCCN4CCOCC4)cc23)cc1 | 10.1 µM | 14.1 µM | 1.86 µM | 89.3 µM | 29.2 µM | – | – | – | – | – | – | – | – | –
CS(=O)(=O)CCNCc1ccc(-c2ccc3ncnc(Nc4ccc(OCc5cccc(F)c5)c(Cl)c4)c3c2)o1 [LAPATINIB] | 4.8 µM | 14.9 µM | 0.6 µM | 12.7 µM | 12.6 µM | – | – | – | 87.7% | 4.56% | 6.27% | 1.5% | 67.5% | 23.89%
Fc1ccc(Nc2ncnc3cc(OCCN4CCOCC4)c(OCCN4CCOCC4)cc23)cc1Cl | 10.4 µM | 7.91 µM | 0.05 µM | 20.4 µM | 16.6 µM | – | – | – | – | – | – | – | – | –
C#Cc1cccc(Nc2ncnc3cc(OCCN4CCOCC4)c(OCCN4CCOCC4)cc23)c1 | 5.41 µM | 11.5 µM | 0.05 µM | 23.1 µM | 20.8 µM | – | – | – | – | – | – | – | – | –

The next compounds have a lower IC50 [1] than those just listed; values first:

IC50 [1] | IC50 [2] | IC50 [3] | IC50 [4] | IC50 [5] | IC50 [6] | IC50 [7] | IC50 [8] | Structure (SMILES) | viability at 15 µM [9] | Activity [10] | Activity [11] | Activity [12] | Activity [13] | Activity [14]
2.01 µM | 3.03 µM | 0.0078 µM | 4.45 µM | 3.54 µM | – | – | – | Fc1ccc(Nc2ncnc3cc(OCCCN4CCOCC4)c(OCCCN4CCOCC4)cc23)cc1Cl | – | – | – | – | – | –
1.35 µM | 8.83 µM | 0.29 µM | 5.53 µM | 6.08 µM | 0.235 µM | > 2 µM | > 1 µM | C/C=C/c1ccc(Nc2ncnc3cc(OCCCN4CCOCC4)c(OCCCN4CCOCC4)cc23)cc1 | – | – | – | – | – | –
1.56 µM | 3.97 µM | 0.0066 µM | 3.1 µM | 5.39 µM | – | – | – | C#Cc1cccc(Nc2ncnc3cc(OCCCN4CCOCC4)c(OCCCN4CCOCC4)cc23)c1 | – | – | – | – | – | –
3.62 µM | 5.81 µM | 0.32 µM | 12.2 µM | 8.82 µM | – | – | – | Fc1cccc(COc2ccc(Nc3ncnc4cc(OCCN5CCOCC5)c(OCCN5CCOCC5)cc34)cc2Cl)c1 | – | – | – | – | – | –
